Reference: US20240306640A1, “BIOCIDAL MIXTURES” (LANXESS Deutschland GmbH, priority 2021, published 2024)

What was measured:
Test in all cases: MIC, suppression of radial hyphal growth on malt extract nutrient agar
Assay type in all cases: cell-based
Trichoderma virens = conditions: Example 3 synergism test, 26° C., read-out: MIC against Trichoderma virens (ppm)
Experimental: (§1) For this purpose, pieces of mycelium were punched out of a colony of the appropriate mold and incubated at 26° C. on a nutrient agar containing malt extract. Here, hyphal growth with and without active ingredient was compared.
(§2) Pieces of mycelium were punched out of a colony of the appropriate mold and incubated at 26° C. on a nutrient agar containing malt extract. Here, hyphal growth with and without active ingredient was compared.
(§3) The synergism was determined according to the method described by Kull et al. (F. C. Kull, P. C. Eismann, H. D. Sylvestrowicz, R. L. Mayer, Applied Microbiology 1961, 9, 538-541). The following relationships apply:
(§4) [formula] • SI=1 means additivity • SI>1 means antagonism • SI<1 means synergism • Qa=concentration of substance A which is the MIC • Qb=concentration of substance B which is the MIC • QA=concentration of substance A in the concentration of A/B at which microbial growth is suppressed • Qb=concentration of substance B in the concentration of A/B at which microbial growth is suppressed 3.1 Combinations of AZO and IPBC Against the Molds Aspergillus niger and Aspergillus versicolor

[1] = tested on: Cladosporium cladosporioides; conditions: Example 3 synergism test, 26° C., read-out: MIC against Cladosporium cladosporioides (ppm)
Experimental: as §1, §2, §3, §4

Stachybotrys chartarum = conditions: Example 3 synergism test, 26° C., read-out: MIC against Stachybotrys chartarum (ppm)
Experimental: as §1, §2, §3, §4

Aspergillus versicolor = conditions: Example 3 synergism test, 26° C., read-out: MIC (ppm) Aspergillus versicolor
Experimental: as §2, §3, §4

Aspergillus niger = conditions: Example 3 synergism test, 26° C., read-out: MIC (ppm) Aspergillus niger
Experimental: as §2, §3, §4

## CO/C=C(/C(=O)OC)c1ccccc1Oc1cc(Oc2ccccc2C#N)ncn1 [AZO, methyl (E)-2-{2-[6-(2-cyanophenoxy)pyrimidin-4-yloxy]phenyl}-3-methoxyacrylate]
Trichoderma virens
  MIC: 1000 µg/mL
[1]
  MIC: 5 µg/mL
Stachybotrys chartarum
  MIC: 100 µg/mL
Aspergillus versicolor
  MIC: 100 µg/mL
Aspergillus niger
  MIC: 5000 µg/mL
